Measured values as given in PubChem BioAssay AID328 (DTP/NCI, 2004).
Values joined by “and” are separate entries in the source; they are usually repeats but may differ in a detail not shown here. Equal entries are not always repeated. Inconclusive results and toxic doses are left out. How the source made its calls: active means survival T/C of 150% or more; inactive means T/C below 125% in these data.

Test system: BDF1 mice, P388 leukemia ip, median survival T/C
Experiment: NCI In Vivo Anticancer Drug Screen. Data for tumor model P388 Leukemia (intraperitoneal) in B6D2F1 (BDF1) mice
Conditions: endpoint: median survival time, higher = longer survival
Protocol: The antitumor activity of compounds was measured in mice bearing transplantable tumors. Survival or tumor size were measured and the results are expressed as the measurement made in the treated group (T) divided by the measurement made in the vehicle treated control group (C). The tumor model used in this assay is P388 Leukemia (intraperitoneal) in B6D2F1 (BDF1) mice

[1] = dose: 25.0 mg/kg/injection, schedule: Q01DX009 (ip), vehicle: saline
[2] = dose: 50.0 mg/kg/injection, schedule: Q01DX009 (ip), vehicle: saline
[3] = dose: 25.0 mg/kg/injection, schedule: Q04DX003 (ip), vehicle: saline with Tween-80
[4] = dose: 25.0 mg/kg/injection, schedule: Q01DX009 (ip), vehicle: saline with Tween-80
[5] = dose: 50.0 mg/kg/injection, schedule: Q01DX009 (ip), vehicle: saline with Tween-80
[6] = dose: 100.0 mg/kg/injection, schedule: Q01DX009 (ip), vehicle: saline with Tween-80
[7] = dose: 200.0 mg/kg/injection, schedule: Q01DX009 (ip), vehicle: saline with Tween-80
[8] = dose: 400.0 mg/kg/injection, schedule: Q01DX009 (ip), vehicle: saline with Tween-80
[9] = dose: 100.0 mg/kg/injection, schedule: Q01DX009 (ip), vehicle: saline
[10] = dose: 100.0 mg/kg/injection, schedule: Q04DX003 (ip), vehicle: saline with Tween-80
[11] = dose: 50.0 mg/kg/injection, schedule: Q04DX003 (ip), vehicle: saline with Tween-80
[12] = dose: 25.0 mg/kg/injection, schedule: Q04DX003 (ip), vehicle: water
[13] = dose: 50.0 mg/kg/injection, schedule: Q04DX003 (ip), vehicle: water
[14] = dose: 100.0 mg/kg/injection, schedule: Q04DX003 (ip), vehicle: water
[15] = dose: 200.0 mg/kg/injection, schedule: Q04DX003 (ip), vehicle: water
[16] = dose: 400.0 mg/kg/injection, schedule: Q04DX003 (ip), vehicle: water
[17] = dose: 100.0 mg/kg/injection, schedule: Q01DX009 (ip), vehicle: Klucel (hydroxypropylcellulose) (HPC)
[18] = dose: 100.0 mg/kg/injection, schedule: Q04DX003 (ip), vehicle: Klucel (hydroxypropylcellulose) (HPC)
[19] = dose: 200.0 mg/kg/injection, schedule: Q04DX003 (ip), vehicle: Klucel (hydroxypropylcellulose) (HPC)
[20] = dose: 400.0 mg/kg/injection, schedule: Q04DX003 (ip), vehicle: Klucel (hydroxypropylcellulose) (HPC)

Measured: T/C

Cc1cccc(N)n1 (tested in a mixture with another compound)
inactive: dose: 12.5 mg/kg/injection, schedule: Q01DX009 (ip), vehicle: saline 105 % of control | [1] 94 % of control | [2] 89 % of control

FC(F)(F)c1ccc2c(c1)N(CCCN1CCN(CCOc3ccccc3)CC1)c1ccccc1S2
inactive: dose: 6.25 mg/kg/injection, schedule: Q04DX003 (ip), vehicle: saline with Tween-80 96 % of control and 115 % of control | dose: 12.5 mg/kg/injection, schedule: Q04DX003 (ip), vehicle: saline with Tween-80 93 % of control and 115 % of control | [3] 114 % of control and 122 % of control

CN(C(=O)/C=C/C(=O)O)c1ccccc1
inactive: [4] 109 % of control | [5] 109 % of control | [6] 109 % of control | [7] 113 % of control | [8] 100 % of control

COc1ccc(NC(=O)Nc2c(Oc3ccc(Cl)cc3)ccc(Cl)c2S(=O)(=O)O)cc1Cl
inactive: [1] 109 % of control | [2] 86 % of control | [9] 104 % of control

CC1=NN(c2ccc(S(=O)(=O)O)cc2)C(=O)/C1=C/c1ccc(Cl)cc1
inactive: [2] 92 % of control | [9] 90 % of control

O=Cc1nc2ccccc2[nH]1
inactive: dose: 12.5 mg/kg/injection, schedule: Q01DX009 (ip), vehicle: saline with Tween-80 108 % of control | [4] 101 % of control | [5] 103 % of control | [6] 111 % of control

CC1CCC2(OC1)OC1CC3C4CCC5CC(O)C(O)CC5(C)C4CCC3(C)C1C2C (centres undefined)
inactive: dose: 100.0 mg/kg/injection, schedule: Q04DX003 (ip), vehicle: other 91 % of control | dose: 200.0 mg/kg/injection, schedule: Q04DX003 (ip), vehicle: other 87 % of control | dose: 400.0 mg/kg/injection, schedule: Q04DX003 (ip), vehicle: other 87 % of control

NC(=O)n1nccc1N
inactive: [9] 100 % of control | dose: 100.0 mg/kg/injection, schedule: Q04DX003 (ip), vehicle: saline 105 % of control | dose: 200.0 mg/kg/injection, schedule: Q01DX009 (ip), vehicle: saline 100 % of control | dose: 200.0 mg/kg/injection, schedule: Q04DX003 (ip), vehicle: saline 115 % of control | dose: 400.0 mg/kg/injection, schedule: Q01DX009 (ip), vehicle: saline 90 % of control | dose: 400.0 mg/kg/injection, schedule: Q04DX003 (ip), vehicle: saline 110 % of control

CCOC(=O)Nc1cc2c(c(N)n1)N=C(c1ccccc1)CN2
inactive: dose: 1.0 mg/kg/injection, schedule: Q01DX009 (ip), vehicle: saline with Tween-80 115 % of control | dose: 3.0 mg/kg/injection, schedule: Q04DX003 (ip), vehicle: saline with Tween-80 117 % of control
active: dose: 2.0 mg/kg/injection, schedule: Q01DX009 (ip), vehicle: saline with Tween-80 151 % of control | dose: 3.0 mg/kg/injection, schedule: Q01DX009 (ip), vehicle: saline with Tween-80 151 % of control

CC(=O)N1C(=O)NC(=O)C1(C)c1ccc(Cl)s1 (centres undefined)
inactive: [5] 92 % of control | [6] 97 % of control | [10] 100 % of control | [7] 113 % of control | dose: 200.0 mg/kg/injection, schedule: Q04DX003 (ip), vehicle: saline with Tween-80 100 % of control | [8] 106 % of control

CCCCCCCCCCCCCCCC(=O)OCCCCCCCCCCCCC
inactive: [3] 100 % of control | [11] 100 % of control | [10] 105 % of control

C=C1C(=O)CCC1/C=C\C (centres undefined)
inactive: dose: 50.0 mg/kg/injection, schedule: Q01DX005 (ip), vehicle: saline with Tween-80 97 % of control

COc1ccc2c(c1)CCC1C2CCC2(C)/C(=N/O)C3OC3C12 (centres undefined)
inactive: [5] 121 % of control | [6] 111 % of control | [7] 111 % of control

COc1cc2c(cc1OC)C(C#N)N(C(=O)c1ccccc1)C=C2 (centres undefined)
inactive: [12] 114 % of control | [13] 99 % of control | [14] 94 % of control | [15] 94 % of control | [16] 112 % of control

N#CCCC1(CCC#N)c2ccccc2-c2ccccc21
inactive: [17] 92 % of control | [18] 96 % of control | dose: 200.0 mg/kg/injection, schedule: Q01DX009 (ip), vehicle: Klucel (hydroxypropylcellulose) (HPC) 92 % of control | [19] 112 % of control | dose: 400.0 mg/kg/injection, schedule: Q01DX009 (ip), vehicle: Klucel (hydroxypropylcellulose) (HPC) 92 % of control | [20] 92 % of control

O=S1(=O)CC(Cl)(Br)C1 (tested in a mixture with another compound)
inactive: [17] 91 % of control

COc1ccc(Nc2nc(N)nc(CNc3ccc(Cl)cc3)n2)cc1
inactive: dose: 100.0 mg/kg/injection, schedule: Q04DX003 (ip), vehicle: saline sonified 100 % of control | dose: 200.0 mg/kg/injection, schedule: Q04DX003 (ip), vehicle: saline sonified 100 % of control | dose: 400.0 mg/kg/injection, schedule: Q04DX003 (ip), vehicle: saline sonified 110 % of control

C=CCNC(=O)C12CC3CC(CC(C3)C1)C2
inactive: [5] 93 % of control | [6] 99 % of control | [7] 103 % of control

CC(C)CCc1cc(O)c(CCC(C)C)cc1O
inactive: dose: 0.78 mg/kg/injection, schedule: Q01DX009 (ip), vehicle: saline with Tween-80 101 % of control | dose: 1.56 mg/kg/injection, schedule: Q01DX009 (ip), vehicle: saline with Tween-80 102 % of control | dose: 3.12 mg/kg/injection, schedule: Q01DX009 (ip), vehicle: saline with Tween-80 102 % of control | dose: 6.25 mg/kg/injection, schedule: Q01DX009 (ip), vehicle: saline with Tween-80 104 % of control

CCCCCCCCCCCCN1CCCC(O)C1 (centres undefined)
inactive: [4] 104 % of control | [5] 100 % of control | [11] 120 % of control | [10] 90 % of control

COc1ccc(C(C(N)=O)N2CCCCC2)cc1 (centres undefined)
inactive: dose: 100.0 mg/kg/injection, schedule: Q01DX009 (ip), vehicle: other 115 % of control | [18] 100 % of control | dose: 200.0 mg/kg/injection, schedule: Q01DX009 (ip), vehicle: other 105 % of control | [19] 90 % of control | dose: 400.0 mg/kg/injection, schedule: Q01DX009 (ip), vehicle: other 100 % of control | [20] 104 % of control

Brc1cnc[nH]1
inactive: dose: 25.0 mg/kg/injection, schedule: Q01DX009 (ip), vehicle: water 103 % of control | [12] 106 % of control | dose: 50.0 mg/kg/injection, schedule: Q01DX009 (ip), vehicle: water 91 % of control | [13] 94 % of control and 106 % of control | dose: 100.0 mg/kg/injection, schedule: Q01DX009 (ip), vehicle: water 87 % of control | [14] 93 % of control (2×) and 110 % of control | dose: 200.0 mg/kg/injection, schedule: Q01DX009 (ip), vehicle: water 100 % of control | [15] 89 % of control and 97 % of control | dose: 300.0 mg/kg/injection, schedule: Q04DX003 (ip), vehicle: water 98 % of control | [16] 94 % of control and 99 % of control and 103 % of control

CCCCCCCCCCCCOCCCCCCCCCCCC
inactive: dose: 100.0 mg/kg/injection, schedule: Q01DX009 (sc), vehicle: olive oil, sesame oil, peanut oil 100 % of control | dose: 100.0 mg/kg/injection, schedule: Q04DX003 (sc), vehicle: olive oil, sesame oil, peanut oil 109 % of control | dose: 200.0 mg/kg/injection, schedule: Q01DX009 (sc), vehicle: olive oil, sesame oil, peanut oil 100 % of control | dose: 200.0 mg/kg/injection, schedule: Q04DX003 (sc), vehicle: olive oil, sesame oil, peanut oil 100 % of control | dose: 400.0 mg/kg/injection, schedule: Q01DX009 (sc), vehicle: olive oil, sesame oil, peanut oil 95 % of control | dose: 400.0 mg/kg/injection, schedule: Q04DX003 (sc), vehicle: olive oil, sesame oil, peanut oil 100 % of control
